Results as given in US20070202203A1, “ANTI-AGEING COMPOSITION” (L'OREAL, priority 2006, published 2007).

System: dermal equivalent consisting of a collagen matrix seeded with normal human fibroblasts
Test: Dermodecontracting effect: spontaneous contraction of dermal equivalent
Type: cell-based
Settings: surface area after 24 h of contraction; control = 100; manganese gluconate 0.0005%, adenosine 0.004%
Text: These conditions are intended to mimic in vitro, the dermal contractile phenomena that occur during dermal tensing of the face, for example during facial expressions. Under these conditions, in fact, the cells spontaneously express tensile forces that induce retraction of the collagen gel. […] The measurement of this surface area makes it possible to evalue the relaxing or dermocontracting effects of the substances previously brought into contact with the dermal equivalent. […] The experiment is repeated three times. The dermal equivalents are prepared as described in Asselineau et al., Exp. Cell. Res., 1985, 159, 536-539; Models in dermatology, 1987, vol 3 pp 1-7, in the following proportions: The collagen used is collagen type I (commercial solution), but collagen type III or IV can also be used. It is extracted from rat tails or from calf skin by acid hydrolysis and conserved in an acidic medium at […]; it polymerizes naturally by heating to 37° C. and by decreasing the degree of acidity. The collagen is dialysed beforehand against successive baths of water +acetic acid. […] For this, a digital image is acquired for each treated or nontreated dermal equivalent by means of a camera (CCD camera—Iris Sony DXC—107P) and the surface area is then calculated on each image by means of an image analysis system (Zeiss Axiovision 3.0). […]

Row | Compound | % contraction [%]
1 | Nc1ncnc2c1ncn2[C@@H]1O[C@H](CO)[C@@H](O)[C@H]1O [Adenosine, adenosine] | 82
2 | manganese gluconate | 89
